From article PMC6430037 (Heliyon, 2019)
Structures can show the parent of a compound that is named as a salt.

Columns and labels:
[1] = test system: BDZ-bs of the GABAA receptor; experiment: [3H]-FNZ radioligand binding assay; conditions: [3H]-FNZ displacement, compound at 300 μM, rat cerebral cortex membranes
[2] = molecular target: T1, 5-HT1A receptor (Rattus norvegicus, UniProt P19327); experiment: [3H]-8-OH-DPAT radioligand binding assay; conditions: for inhibition at 300 µM: read-out: 5-HT1A Binding Inhibition (%) [300 μM]
T1 sequence (P19327 1-422): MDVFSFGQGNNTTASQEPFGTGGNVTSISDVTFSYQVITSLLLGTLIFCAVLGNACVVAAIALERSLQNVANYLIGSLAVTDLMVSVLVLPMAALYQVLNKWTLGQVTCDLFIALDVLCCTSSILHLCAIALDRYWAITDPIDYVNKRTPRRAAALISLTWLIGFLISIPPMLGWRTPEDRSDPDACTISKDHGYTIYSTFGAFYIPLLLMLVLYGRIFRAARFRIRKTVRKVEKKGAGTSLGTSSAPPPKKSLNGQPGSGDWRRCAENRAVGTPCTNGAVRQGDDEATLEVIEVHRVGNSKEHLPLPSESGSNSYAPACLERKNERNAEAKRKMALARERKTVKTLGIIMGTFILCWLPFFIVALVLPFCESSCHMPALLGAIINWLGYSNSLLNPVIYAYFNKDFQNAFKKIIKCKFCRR

[3] = molecular target: μ-opioid receptor (Rattus norvegicus, UniProt P33535); experiment: [3H]-DAMGO radioligand binding assay; conditions: for inhibition at 300 µM: read-out: μ-opioid Binding inhibition (%) [300 μM]; for Ki: μ-opioid Ki, [3H]-DAMGO, rat forebrain membranes, Ki ± SEM, 2 determinations
μ-opioid receptor, sequence (P33535 whole entry): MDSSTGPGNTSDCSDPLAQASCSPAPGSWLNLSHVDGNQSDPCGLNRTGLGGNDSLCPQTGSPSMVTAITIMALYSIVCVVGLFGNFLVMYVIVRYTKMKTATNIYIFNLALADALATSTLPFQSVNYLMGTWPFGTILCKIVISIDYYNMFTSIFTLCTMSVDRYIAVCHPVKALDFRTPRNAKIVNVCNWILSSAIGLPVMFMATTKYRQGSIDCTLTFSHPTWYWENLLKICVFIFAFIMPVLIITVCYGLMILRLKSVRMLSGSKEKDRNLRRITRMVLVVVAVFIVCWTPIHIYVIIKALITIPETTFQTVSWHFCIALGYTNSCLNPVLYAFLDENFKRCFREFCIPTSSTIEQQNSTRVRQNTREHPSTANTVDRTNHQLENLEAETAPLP

[4] = test system: rats; conditions: cited from earlier work
[5] = test system: mice; conditions: cited from earlier work
[6] = test system: mice; conditions: cited from earlier work; remark: listed apart in the source
[7] = test system: mice; experiment: Tail suspension test; assay type: in vivo; conditions: 30 min before
[8] = test system: mice; experiment: Acetic acid induced writhing test; assay type: in vivo
[9] = test system: mice; experiment: Hot plate test; assay type: in vivo; conditions: plate 52.5 °C
[10] = Cell viability assay; assay type: cell-based, human; conditions: human, SH-SY5Y cells
[11] = PAMPA-BBB permeability assay; assay type: in vitro ADME
[12] = test system: mice; experiment: Elevated plus-maze test; assay type: in vivo
[13] = test system: mice; experiment: Spontaneous locomotor activity; assay type: in vivo; conditions: 10 and 30 mg/kg i.p., 5 min counts
[14] = 10 mg/kg i.p., 30 min before, 5 min session

Structure (SMILES)	BDZ-bs Binding inhibition (%) [300 μM] [1]	inhibition at 300 µM [2] [%]	inhibition at 300 µM [3] [%]	Ki [2] [µM]	Ki [3] [µM]	other results
O=C(/C=C/c1ccccc1)c1cc(Br)ccc1O [Compound 8, (2E)-1-(5-bromo-2-hydroxyphenyl)-3-phenyl-2-propen-1-one]	++ (inhibition 40–60% (++))	40 to 60	20 to 40	–	–	–
O=C(/C=C/c1ccc(Cl)cc1)c1ccccc1 [Compound 19, (2E)-3-(4-chlorophenyl)-1-phenyl-2-propen-1-one]	+ (inhibition 20–40% (+))	< 20	20 to 40	–	–	–
O=C(/C=C/c1ccc(O)c(O)c1)c1ccc(O)cc1O [butein]	–	–	–	–	–	effect in the plus-maze test [4]: anxiolytic-like effect
COc1ccc(C(=O)/C=C/c2ccccc2)c(O)c1 [Compound 3, (2E)-1-(2-hydroxy-4-methoxyphenyl)-3-phenyl-2-propen-1-one]	+++ (inhibition 60–90% (+++))	20 to 40	20 to 40	–	–	–
O=C(/C=C/c1ccccc1)c1cc(F)ccc1O [Compound 7, (2E)-1-(5-fluoro-2-hydroxyphenyl)-3-phenyl-2-propen-1-one]	++ (inhibition 40–60% (++))	60 to 90	60 to 90	129 ± 2.7	29.5 ± 6.6	–
O=C(/C=C/c1c(Cl)cccc1Cl)c1ccc(O)cc1O [2,6-dichloro-2′,4′-dihydroxychalcone]	–	–	–	–	–	head-twitches in the 5-HT induced head-twitch test [5]: significantly increased head-twitches; lethality in the yohimbine-induced mortality test [6]: enhanced the mouse lethality
Nc1ccc(C(=O)/C=C/c2ccccc2)cc1 [Compound 14, (2E)-1-(4-aminophenyl)-3-phenyl-2-propen-1-one]	+++ (inhibition 60–90% (+++))	40 to 60	60 to 90	–	59.4 ± 1.5	–
CN(C)c1ccc(/C=C/C(=O)c2ccccc2)cc1 [Compound 20, (2E)-3-[4-(dimethylamino)phenyl]-1-phenyl-2-propen-1-one]	- (inhibition <20% (-))	60 to 90	60 to 90	59.6 ± 1.5	23.8 ± 3.1	–
CN(C)CCCN1c2ccccc2CCc2ccccc21 [IMP, imipramine hydrochloride, reference compound]	–	–	–	–	–	immobility time vs VEH ([7]; 30 mg/kg i.p.): significantly reduced
O=C(/C=C/c1cccc(Cl)c1)c1ccccc1 [Compound 18, (2E)-3-(3-chlorophenyl)-1-phenyl-2-propen-1-one]	++ (inhibition 40–60% (++))	20 to 40	20 to 40	–	–	–
O=C(/C=C/c1ccccc1)c1cc(Cl)ccc1O [Compound 6, (2E)-1-(5-chloro-2-hydroxyphenyl)-3-phenyl-2-propen-1-one]	++ (inhibition 40–60% (++))	40 to 60	60 to 90	–	19.4 ± 3.5	number of writhes vs VEH ([8]; 10 mg/kg i.p., acetic acid 0.75%): significantly reduced; reaction (latency) time against thermal stimulus vs VEH ([9]; 30 mg/kg i.p.): Only chalcone 12 at 30 mg/kg caused significant increases
Cc1ccc(C(=O)/C=C/c2ccccc2)cc1 [Compound 15, (2E)-1-(4-methylphenyl)-3-phenyl-2-propen-1-one]	+++ (inhibition 60–90% (+++))	40 to 60	20 to 40	–	–	–
O=C(/C=C/c1ccccc1)c1ccccc1O [Compound 2, (2E)-1-(2-hydroxyphenyl)-3-phenyl-2-propen-1-one]	+++ (inhibition 60–90% (+++))	60 to 90	20 to 40	71.4 ± 1.4	–	–
COc1ccc(O)c(C(=O)/C=C/c2ccccc2)c1 [Compound 4, (2E)-1-(2-hydroxy-5-methoxyphenyl)-3-phenyl-2-propen-1-one]	+++ (inhibition 60–90% (+++))	60 to 90	60 to 90	303 ± 1.2	54.6 ± 2.9	–
Cc1ccc(O)c(C(=O)/C=C/c2ccccc2)c1 [Compound 9, (2E)-1-(2-hydroxy-5-methylphenyl)-3-phenyl-2-propen-1-one]	+++ (inhibition 60–90% (+++))	40 to 60	60 to 90	–	46.3 ± 1.6	viability at 48 h, 20 µM [10]: 88.5%; Papp at 16 h, 50 µM ([11]; PAMPA, pH 7.4): 25.1 ×10⁻⁶ cm/s; BBB penetration estimation Prediction ([11]; PAMPA-BBB binning by -logPe): CNS+ (CNS+, -logPe < 5.6, high permeability); percentage of open arm entries vs VEH [12, 14]: significantly increased; percentage of time spent in open arms vs VEH [12, 14]: significantly increased; number of total arm entries vs VEH ([12]; 30 mg/kg i.p.): significantly increased; spontaneous locomotor activity vs VEH [13]: did not show significant differences
CN1CC[C@]23c4c5ccc(O)c4O[C@H]2[C@@H](O)C=C[C@H]3[C@H]1C5 [morphine, Morphine hydrochloride, reference compound]	–	–	–	–	–	abdominal cramps ([8]; 6 mg/kg i.p.): no abdominal cramps; latency time ([9]; 6 mg/kg i.p., 45 s cut-off): 42.6 s
COc1cccc(O)c1C(=O)/C=C/c1ccccc1 [Compound 5, (2E)-1-(2-hydroxy-6-methoxyphenyl)-3-phenyl-2-propen-1-one]	- (inhibition <20% (-))	> 90	60 to 90	13.3 ± 0.3	26.7 ± 1.6	immobility time vs VEH ([7]; 10 mg/kg i.p.): not active
O=C(/C=C/c1ccccc1)c1cc(Br)cc(Br)c1O [Compound 10, (2E)-1-(3,5-dibromo-2-hydroxyphenyl)-3-phenyl-2-propen-1-one]	- (inhibition <20% (-))	60 to 90	60 to 90	1220 ± 469	32.5 ± 9.3	–
O=C(/C=C/c1ccc([N+](=O)[O-])cc1)c1ccccc1 [Compound 17, (2E)-3-(4-nitrophenyl)-1-phenyl-2-propen-1-one]	- (inhibition <20% (-))	< 20	20 to 40	–	–	–
O=C(/C=C/c1cccc([N+](=O)[O-])c1)c1ccccc1 [Compound 16, (2E)-3-(3-nitrophenyl)-1-phenyl-2-propen-1-one]	++++ (inhibition >90% (++++))	40 to 60	< 20	–	–	number of total arm entries vs VEH [12, 14]: significantly increased
COc1cc(C(=O)/C=C/c2ccccc2)ccc1O [Compound 13, (2E)-1-(4-hydroxy-3-methoxyphenyl)-3-phenyl-2-propen-1-one]	++ (inhibition 40–60% (++))	40 to 60	40 to 60	287.8 ± 1.9	–	–
Nc1ccc(C(=O)/C=C/c2cccc([N+](=O)[O-])c2)cc1 [Compound 21, (2E)-1-(4-aminophenyl)-3-(3-nitrophenyl)-2-propen-1-one]	–	60 to 90	40 to 60	473 ± 7.3	–	–
Cc1cc(O)c(C(=O)/C=C/c2ccccc2)cc1C [Compound 11, (2E)-1-(4,5-dimethyl-2-hydroxyphenyl)-3-phenyl-2-propen-1-one]	+ (inhibition 20–40% (+))	60 to 90	60 to 90	164 ± 1.47	29.1 ± 8.5	–
